According to PubChem BioAssay AID2060909 (Molecular Pharmacology Branch, DTP, NCI, 2025):
pIC50: −log10 of the molar value.

Tested on: 362531-283-R-J2-PDC complex spheroid viability
Assay: Anticancer human tumor 362531-283-R-J2-PDC patient-derived colon adenocarcinoma cell line growth inhibition [RAS]
Settings: for pIC50: curve of first compound; for viability, T/C: stronger effect = lower value
Method in brief: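 Multi-cell-type spheroids: tumor cells plus HUVEC endothelial cells and mesenchymal stem cells. RAS-pathway inhibitors were combined with targeted agents, each dosed in half-log steps down from clinical Cmax, or from 10 microM when Cmax was unknown.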

[1] = second compound 0.000949 µM, first compound 0.000949 µM
[2] = second compound 0.000949 µM, first compound 0.003 µM
[3] = second compound 0.000949 µM, first compound 0.00949 µM
[4] = second compound 0.000949 µM, first compound 0.03 µM
[5] = second compound 0.000949 µM, first compound 0.0949 µM
[6] = second compound 0.000949 µM, first compound 0.3 µM
[7] = second compound 0.003 µM, first compound 0.000949 µM
[8] = second compound 0.003 µM, first compound 0.003 µM
[9] = second compound 0.003 µM, first compound 0.00949 µM
[10] = second compound 0.003 µM, first compound 0.03 µM
[11] = second compound 0.003 µM, first compound 0.0949 µM
[12] = second compound 0.003 µM, first compound 0.3 µM
[13] = second compound 0.00949 µM, first compound 0.000949 µM
[14] = second compound 0.00949 µM, first compound 0.003 µM
[15] = second compound 0.00949 µM, first compound 0.00949 µM
[16] = second compound 0.00949 µM, first compound 0.03 µM
[17] = second compound 0.00949 µM, first compound 0.0949 µM
[18] = second compound 0.00949 µM, first compound 0.3 µM
[19] = second compound 0.03 µM, first compound 0.000949 µM
[20] = second compound 0.03 µM, first compound 0.003 µM
[21] = second compound 0.03 µM, first compound 0.00949 µM
[22] = second compound 0.03 µM, first compound 0.03 µM
[23] = second compound 0.03 µM, first compound 0.0949 µM
[24] = second compound 0.03 µM, first compound 0.3 µM
[25] = second compound 0.0949 µM, first compound 0.000949 µM
[26] = second compound 0.0949 µM, first compound 0.003 µM
[27] = second compound 0.0949 µM, first compound 0.00949 µM
[28] = second compound 0.0949 µM, first compound 0.03 µM
[29] = second compound 0.0949 µM, first compound 0.0949 µM
[30] = second compound 0.0949 µM, first compound 0.3 µM
[31] = second compound 0.3 µM, first compound 0.000949 µM
[32] = second compound 0.3 µM, first compound 0.003 µM
[33] = second compound 0.3 µM, first compound 0.00949 µM
[34] = second compound 0.3 µM, first compound 0.03 µM
[35] = second compound 0.3 µM, first compound 0.0949 µM
[36] = second compound 0.3 µM, first compound 0.3 µM
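Note: spheroids exposed to the agents for 7 days before readout.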
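Throughout, for viability, T/C: luminescence viability as percent of DMSO vehicle control wells.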

## C=CC(=O)N1CCN(c2nc(OCC3CCCN3C)nc3c(F)c(-c4nc(N)cc(C)c4C(F)(F)F)c(Cl)cc23)C(C)C1 (stereo unspecified) + CCn1c(-c2cccnc2C(C)OC)c2c3cc(ccc31)N1CCOC(CC(NC(=O)C(C(C)C)N(C)C(=O)C3(F)CCN(C(=O)C#CC(C)(C)N(C)C)CC3)C(=O)N3CCCC(N3)C(=O)OCC(C)(C)C2)C1
Second compound 0.000949 µM
  pIC50: < 6.00
Second compound 0.003 µM
  pIC50: < 6.00
Second compound 0.00949 µM
  pIC50: < 6.00
Second compound 0.03 µM
  pIC50: < 6.00
Second compound 0.0949 µM
  pIC50: < 6.00
Second compound 0.3 µM
  pIC50: < 6.00
Second compound 0.000949 µM, first compound 0.00316 µM
  viability, T/C: 98.9%
Second compound 0.000949 µM, first compound 0.01 µM
  viability, T/C: 106%
Second compound 0.000949 µM, first compound 0.0316 µM
  viability, T/C: 106%
Second compound 0.000949 µM, first compound 0.1 µM
  viability, T/C: 97%
Second compound 0.000949 µM, first compound 0.316 µM
  viability, T/C: 107%
Second compound 0.000949 µM, first compound 1 µM
  viability, T/C: 95.2%
Second compound 0.003 µM, first compound 0.00316 µM
  viability, T/C: 111%
Second compound 0.003 µM, first compound 0.01 µM
  viability, T/C: 104%
Second compound 0.003 µM, first compound 0.0316 µM
  viability, T/C: 98.5%
Second compound 0.003 µM, first compound 0.1 µM
  viability, T/C: 92.4%
Second compound 0.003 µM, first compound 0.316 µM
  viability, T/C: 96.1%
Second compound 0.003 µM, first compound 1 µM
  viability, T/C: 91.8%
Second compound 0.00949 µM, first compound 0.00316 µM
  viability, T/C: 101%
Second compound 0.00949 µM, first compound 0.01 µM
  viability, T/C: 122%
Second compound 0.00949 µM, first compound 0.0316 µM
  viability, T/C: 97.2%
Second compound 0.00949 µM, first compound 0.1 µM
  viability, T/C: 100%
Second compound 0.00949 µM, first compound 0.316 µM
  viability, T/C: 101%
Second compound 0.00949 µM, first compound 1 µM
  viability, T/C: 98.8%
Second compound 0.03 µM, first compound 0.00316 µM
  viability, T/C: 100%
Second compound 0.03 µM, first compound 0.01 µM
  viability, T/C: 117%
Second compound 0.03 µM, first compound 0.0316 µM
  viability, T/C: 87%
Second compound 0.03 µM, first compound 0.1 µM
  viability, T/C: 96.2%
Second compound 0.03 µM, first compound 0.316 µM
  viability, T/C: 101%
Second compound 0.03 µM, first compound 1 µM
  viability, T/C: 106%
Second compound 0.0949 µM, first compound 0.00316 µM
  viability, T/C: 93.6%
Second compound 0.0949 µM, first compound 0.01 µM
  viability, T/C: 95.7%
Second compound 0.0949 µM, first compound 0.0316 µM
  viability, T/C: 103%
Second compound 0.0949 µM, first compound 0.1 µM
  viability, T/C: 101%
Second compound 0.0949 µM, first compound 0.316 µM
  viability, T/C: 95.6%
Second compound 0.0949 µM, first compound 1 µM
  viability, T/C: 113%
Second compound 0.3 µM, first compound 0.00316 µM
  viability, T/C: 100%
Second compound 0.3 µM, first compound 0.01 µM
  viability, T/C: 109%
Second compound 0.3 µM, first compound 0.0316 µM
  viability, T/C: 108%
Second compound 0.3 µM, first compound 0.1 µM
  viability, T/C: 103%
Second compound 0.3 µM, first compound 0.316 µM
  viability, T/C: 94.4%
Second compound 0.3 µM, first compound 1 µM
  viability, T/C: 100%

## CC1(C)CCC(Nc2ncc(C(F)(F)F)c(-c3c[nH]c4c(P(C)(C)=O)c(C#N)ccc34)n2)CN1 (stereo unspecified) + CCn1c(-c2cccnc2C(C)OC)c2c3cc(ccc31)N1CCOC(CC(NC(=O)C(C(C)C)N(C)C(=O)C3(F)CCN(C(=O)C#CC(C)(C)N(C)C)CC3)C(=O)N3CCCC(N3)C(=O)OCC(C)(C)C2)C1
Second compound 0.000949 µM
  pIC50: < 6.52
Second compound 0.003 µM
  pIC50: < 6.52
Second compound 0.00949 µM
  pIC50: < 6.52
Second compound 0.03 µM
  pIC50: < 6.52
Second compound 0.0949 µM
  pIC50: < 6.52
Second compound 0.3 µM
  pIC50: < 6.52
[1]
  viability, T/C: 105%
[2]
  viability, T/C: 99.2%
[3]
  viability, T/C: 102%
[4]
  viability, T/C: 98.3%
[5]
  viability, T/C: 108%
[6]
  viability, T/C: 99.1%
[7]
  viability, T/C: 110%
[8]
  viability, T/C: 99.3%
[9]
  viability, T/C: 98%
[10]
  viability, T/C: 92.6%
[11]
  viability, T/C: 107%
[12]
  viability, T/C: 89.1%
[13]
  viability, T/C: 97.5%
[14]
  viability, T/C: 102%
[15]
  viability, T/C: 87.3%
[16]
  viability, T/C: 105%
[17]
  viability, T/C: 102%
[18]
  viability, T/C: 104%
[19]
  viability, T/C: 98.5%
[20]
  viability, T/C: 110%
[21]
  viability, T/C: 95.9%
[22]
  viability, T/C: 98.9%
[23]
  viability, T/C: 100%
[24]
  viability, T/C: 91.3%
[25]
  viability, T/C: 86.8%
[26]
  viability, T/C: 99.5%
[27]
  viability, T/C: 103%
[28]
  viability, T/C: 95.2%
[29]
  viability, T/C: 103%
[30]
  viability, T/C: 107%
[31]
  viability, T/C: 96.8%
[32]
  viability, T/C: 102%
[33]
  viability, T/C: 94.1%
[34]
  viability, T/C: 98.5%
[35]
  viability, T/C: 101%
[36]
  viability, T/C: 94.9%

## CCc1c2c(nc3ccc(O)cc13)-c1cc3c(c(=O)n1C2)COC(=O)[C@]3(O)CC + CCn1c(-c2cccnc2C(C)OC)c2c3cc(ccc31)N1CCOC(CC(NC(=O)C(C(C)C)N(C)C(=O)C3(F)CCN(C(=O)C#CC(C)(C)N(C)C)CC3)C(=O)N3CCCC(N3)C(=O)OCC(C)(C)C2)C1
Second compound 0.000949 µM
  pIC50: 7.24
Second compound 0.003 µM
  pIC50: 7.48
Second compound 0.00949 µM
  pIC50: 7.29
Second compound 0.03 µM
  pIC50: 7.22
Second compound 0.0949 µM
  pIC50: 7.25
Second compound 0.3 µM
  pIC50: 7.35
[1]
  viability, T/C: 96.5%
[2]
  viability, T/C: 91.6%
[3]
  viability, T/C: 83%
[4]
  viability, T/C: 73.6%
[5]
  viability, T/C: 32.9%
[6]
  viability, T/C: 18%
[7]
  viability, T/C: 112%
[8]
  viability, T/C: 91.6%
[9]
  viability, T/C: 82.5%
[10]
  viability, T/C: 45.9%
[11]
  viability, T/C: 34%
[12]
  viability, T/C: 16.7%
[13]
  viability, T/C: 101%
[14]
  viability, T/C: 99.2%
[15]
  viability, T/C: 76.1%
[16]
  viability, T/C: 65%
[17]
  viability, T/C: 35.5%
[18]
  viability, T/C: 17.8%
[19]
  viability, T/C: 103%
[20]
  viability, T/C: 90.8%
[21]
  viability, T/C: 89%
[22]
  viability, T/C: 71.8%
[23]
  viability, T/C: 35.8%
[24]
  viability, T/C: 15.7%
[25]
  viability, T/C: 95.1%
[26]
  viability, T/C: 93.1%
[27]
  viability, T/C: 84.8%
[28]
  viability, T/C: 60.1%
[29]
  viability, T/C: 40.9%
[30]
  viability, T/C: 16.4%
[31]
  viability, T/C: 90.3%
[32]
  viability, T/C: 108%
[33]
  viability, T/C: 90.3%
[34]
  viability, T/C: 57.6%
[35]
  viability, T/C: 32.5%
[36]
  viability, T/C: 13.3%
